From US12064516B2, “Pharmaceutical formulations and uses thereof” (Aldeyra Therapeutics, Inc., priority 2020, dated 2024)
Like-named read-outs stand apart in the source and are kept apart here.

Test: Pharmacokinetics of compound I-1 in the dog by intravenous, oral gavage and oral capsule routes
Assay type: in vivo, beagle dogs
Conditions: male, beagle, dog, plasma; for concentration at 4 h / concentration at 8 h / concentration at 12 h / concentration at 0.25 h / concentration at 0.5 h / concentration at 1 h / concentration at 2 h: read-out: Concentration at time point; for bioavailability: read-out: BioA (bioavailability)
Experimental: A pharmacokinetic study was conducted to compare the bioavailability of capsule and suspension oral formulations vs. an intravenous formulations.
The standard curve was prepared from 1 to 2,000 ng/mL. QC samples were prepared at […]. Dilution QCs were prepared at 10-fold dilution. Deuterated (d6) I-1 (compound 1-7) was used as an internal standard. A 50 μL aliquot of sample was added to 150 μL of cold internal standard in acetonitrile to effect protein precipitation. The resulting supernatants were analyzed by LCMS. Diluted sample data was utilized only for over-the-curve results.
Briefly, 9 male non-naïve beagle dogs were assigned in groups of 3 to 3 dose groups. Group 1 was dosed 3 mg/kg by the intravenous route in a vehicle of 20% sulfobutylether-β-cyclodextrin (SBECD). Group 2 was dosed 10 mg/kg by the oral gavage route in a vehicle of 0.5% methylcellulose (MC). Group 3 was dosed with 100 mg capsules.
The I-1 100 mg capsules are manufactured as a non-sterile spray dried, granulated powder blend. The blend is then filled into capsules for oral delivery. The capsules are packaged in high-density polyethylene bottles. The quantitative composition of the I-1 100 mg capsule is presented above in Table B.
Procedure: (PO) gavage: formulations will be administered via a rubber oral gavage tube followed by a 10 mL flush with drinking water. (PO) tablet: tablets will be administered orally by placing the tablet in the back of the throat followed by a 10 mL flush with water.
Frequency: Pre-dose, 5, 15, 30 min, 1, 2, 4, 8, and 12 hrs post-dose (IV); pre-dose, 15, 30 min, 1, 2, 4, 8, and 12 hrs post-dose (PO by gavage and PO by capsule).
Blood collection: each blood sample will be collected from the dog's jugular vein or other accessible vein via direct venepuncture, placed into a pre-labeled tube containing K2EDTA and kept on ice until centrifugation.
Plasma preparation and storage: Certifuged at 4 C at 3,000× for 5 mm. Stored in a freezer until analysed.
Pharmacokinetics package PKSolver2.0™ has been validated against WinNonLin™ as a tool for non-GLP studies and was used to process the pharmacokinetic data.
For each route, the average data were processed with non-compartmental, one compartment, and two compartment models. The models were assessed for goodness of fit and the accuracy of the model to assess the biphasic data, with either a) no weighting, b) 1/concentration observed, or c) 1/concentration observed squared. 1/concentration predicted, and 1/concentration predicted squared weightings were also assessed for best fit. […] The zeros were averaged with the 71.5 value for a resulting average of 23.8. For the In Group 2 (PO Gavage) subject 3 experienced 30 mL of emesis, so the dose assigned to that subject was 7.46. In all cases, the subjects were modelled individually, and the individual PK parameters were averaged to provide final parameters.
For group 1 (intravenous) the final model selected was a two compartment model with 1/concentration observed squared weighting.
For group 2 (oral gavage) the final model was a two compartment extravascular model with 1/concentration predicted squared weighting.
For group 3 (oral capsule) the final model was a one compartment extravascular model with a lag time and no weighting. […] The body weight of each animal was used to assign a mg/kg dose to each individual. Subject 1 was dosed at 7.69 mg/kg. Subject 2 was 6.94 mg/kg, and Subject 3 was 6.99 mg/kg.

[1] = oral, 7 mg/kg, Group 3: PO Capsule 7 mg/kg, Subject 1
[2] = oral, 7 mg/kg, Group 3: PO Capsule 7 mg/kg, Subject 2
[3] = oral, 7 mg/kg, Group 3: PO Capsule 7 mg/kg, Subject 3
[4] = oral, 7 mg/kg, Group 3: PO Capsule 7 mg/kg, Average
[5] = oral, 7.2 mg/kg, 100 mg Capsule, average dose 7.2 mg/kg, Average
[6] = po, 7.2 mg/kg, 100 mg Capsule, average dose 7.2 mg/kg, Average
[7] = po, 7.2 mg/kg, 100 mg Capsule, average dose 7.2 mg/kg, Subj1
[8] = po, 7.2 mg/kg, 100 mg Capsule, average dose 7.2 mg/kg, Subj2
[9] = po, 7.2 mg/kg, 100 mg Capsule, average dose 7.2 mg/kg, Subj3
[10] = po, 10 mg/kg, Group 2: PO Gavage 10 mg/kg, Average
[11] = po, 10 mg/kg, Group 2: PO Gavage 10 mg/kg, Subject 1
[12] = po, 10 mg/kg, Group 2: PO Gavage 10 mg/kg, Subject 2
[13] = po, 10 mg/kg, Group 2: PO Gavage 10 mg/kg, Subject 3
[14] = po, 10 mg/kg, Oral Gavage 0.5% Methylcellulose 10 mg/kg, Average
[15] = po, 10 mg/kg, Oral Gavage 0.5% Methylcellulose 10 mg/kg, Subj1
[16] = po, 10 mg/kg, Oral Gavage 0.5% Methylcellulose 10 mg/kg, Subj2
[17] = po, 10 mg/kg, Oral Gavage 0.5% Methylcellulose 10 mg/kg, Subj3

With `CC(C)(O)c1nc2ccccc2cc1N` [I-1] the concentration at 4 h [1] was 1070 ng/mL, the concentration at 4 h [2] was 736 ng/mL and the concentration at 4 h [3] was 1150 ng/mL. The concentration at 8 h [4] was 223 ng/mL, the concentration at 8 h [1] was 195 ng/mL and the concentration at 8 h [2] was 147 ng/mL. The concentration at 8 h [3] was 327 ng/mL, the concentration at 12 h [4] was 94.5 ng/mL and the concentration at 12 h [1] was 58.7 ng/mL. For the same molecule, the concentration at 12 h [2] was 58 ng/mL, the concentration at 12 h [3] was 167 ng/mL and the Tmax [5] was 2.37 h. The bioavailability [5] was 83%, the concentration at 0.25 h (oral, 100 mg, Group 3: PO Capsule 7 mg/kg, Average) was 23.8 ng/mL and the concentration at 0.25 h (oral, 100 mg, Group 3: PO Capsule 7 mg/kg, Subject 2) was 71.5 ng/mL. The AUC(0-inf) [6] was 8170 ng·h/mL, the AUC(0-t) [6] was 8080 ng·h/mL and the Cmax [6] was 1700 ng/mL. It also gave a half-life [6] of 1.33 h, an AUC(0-inf) [7] of 7350 ng·h/mL and an AUC(0-t) [7] of 7240 ng·h/mL. The Cmax [7] was 1390 ng/mL, the Tmax [7] was 2.57 h and the half-life [7] was 1.38 h. For the same molecule, the AUC(0-inf) [8] was 5610 ng·h/mL, the AUC(0-t) [8] was 5490 ng·h/mL and the Cmax [8] was 986 ng/mL. For the same molecule, the Tmax [8] was 2.37 h, the half-life [8] was 1.49 h and the AUC(0-inf) [9] was 11600 ng·h/mL. The AUC(0-t) [9] was 11500 ng·h/mL, the Cmax [9] was 2730 ng/mL and the Tmax [9] was 2.16 h. The half-life [9] was 1.1 h, the concentration at 0.25 h [10] was 2480 ng/mL and the concentration at 0.25 h [11] was 3360 ng/mL. The concentration at 0.25 h [12] was 2760 ng/mL, the concentration at 0.25 h [13] was 1310 ng/mL and the concentration at 0.5 h [10] was 4320 ng/mL. It also gave a concentration at 0.5 h [11] of 5400 ng/mL, a concentration at 0.5 h [12] of 4290 ng/mL and a concentration at 0.5 h [13] of 3260 ng/mL. It also gave a concentration at 1 h [10] of 2700 ng/mL, a concentration at 1 h [11] of 2970 ng/mL and a concentration at 1 h [12] of 2610 ng/mL. It also gave a concentration at 1 h [13] of 2520 ng/mL, a concentration at 2 h [10] of 1420 ng/mL and a concentration at 2 h [11] of 1890 ng/mL. It also gave a concentration at 2 h [12] of 1470 ng/mL, a concentration at 2 h [13] of 908 ng/mL and a concentration at 4 h [10] of 787 ng/mL. The concentration at 4 h [11] was 909 ng/mL, the concentration at 4 h [12] was 909 ng/mL and the concentration at 4 h [13] was 541 ng/mL. For the same molecule, the concentration at 8 h [10] was 157 ng/mL, the concentration at 8 h [11] was 131 ng/mL and the concentration at 8 h [12] was 233 ng/mL. It also gave a concentration at 8 h [13] of 108 ng/mL, a concentration at 12 h [10] of 45.1 ng/mL and a concentration at 12 h [11] of 28.1 ng/mL. For the same molecule, the concentration at 12 h [12] was 59.1 ng/mL, the concentration at 12 h [13] was 48.1 ng/mL and the AUC(0-inf) [14] was 9550 ng·h/mL. It also gave an AUC(0-t) [14] of 9360 ng·h/mL, a Cmax [14] of 3560 ng/mL and a Tmax [14] of 0.518 h. It also gave a half-life [14] of 3.02 h, a bioavailability [14] of 75% and an AUC(0-inf) [15] of 11200 ng·h/mL. The AUC(0-t) [15] was 11100 ng·h/mL, the Cmax [15] was 4350 ng/mL and the Tmax [15] was 0.459 h. For the same molecule, the half-life [15] was 2.85 h, the AUC(0-inf) [16] was 10100 ng·h/mL and the AUC(0-t) [16] was 9910 ng·h/mL. For the same molecule, the Cmax [16] was 3670 ng/mL, the Tmax [16] was 0.46 h and the half-life [16] was 2.13 h. It also gave an AUC(0-inf) [17] of 7330 ng·h/mL, an AUC(0-t) [17] of 7050 ng·h/mL and a Cmax [17] of 2650 ng/mL. It also gave a Tmax [17] of 0.635 h and a half-life [17] of 4.08 h.
